Read-outs that look alike come from different tables or passages of the source.
How the values were obtained:
[1] = system: Bax and Cytochrome‐C in MDA‐MB‐231 cells; assay: Gene expression of apoptotic genes, semi-quantitative RT-PCR; assay type: cell-based, human; details: MDA-MB-231, doxorubicin + compound 5 μM, 24 h
Protocol: Briefly, the cells were incubated at 37°C with serum starvation followed by culturing as described above. […] Briefly, the template RNA (1 μg) was utilized for cDNA synthesis using a First‐strand cDNA synthesis kit (Thermo Scientific, USA) according to the manufacturer's protocol. Thermal cycler (Mastercycler® nexus, Eppendorf) was used for the amplification of the expression of apoptotic genes—Bax, Bcl2, Cytochrome‐C, and target gene EGFR with the help of Dream Taq DNA Polymerase PCR Master Mix (Thermo Scientific, USA) along with human gene‐specific forward and reverse primer sequences of the apoptotic genes and EGFR (Table ST1). The expression of the target genes was normalized to the Eukaryotic 18S rRNA.

HEK‐293 = assay: MTT cytotoxicity assay in control cell line HEK-293; assay type: cell-based, human; details: non-tumoral control cell line, read-out: IC50 (μM) in HEK‐293 (mean ± SD)
Protocol: (§1) TNBC cell lines (ER^−, PR^−, HER2^−)—MDA‐MB‐231 (ATCC HTB‐26) and MDA‐MB‐468 (ATCC HTB‐132) were procured from ATCC and cultured in Roswell Park Memorial Institute Media (RPMI‐1640) and Dulbecco's Modified Eagle's Medium (DMEM), respectively, supplemented with 10% FBS and 1% Penicillin–Streptomycin solution. Cells were maintained at 5% CO2 at 37°C in a humid atmosphere.[6], [26] The control cell line, Human Embryonic Kidney—HEK‐293 (ATCC CRL‐3216) was also obtained from ATCC and cultured in DMEM.[5], [25]
(§2) To evaluate the cytotoxicity profile of the potential EGFR inhibitors (compounds) against TNBC cell lines—MDA‐MB‐231, MDA‐MB‐468, and control cell line HEK293, cells were seeded at a cell density of 5 × 10^3 cells/well in complete medium onto 96‐well plates. Here, the non‐tumoral human embryonic kidney (HEK293) epithelial cells have been utilized as a control cell line to compare the IC50 values of the compounds between cancerous and non‐cancerous cell lines with a big therapeutic window. The use of HEK293 cells as compared to other non‐cancerous cell lines are easy to maintain in culture and the results obtained from HEK293 are highly reproducible and consistent.[27] Briefly, the cells were incubated at 37°C for 12 h to attain morphology. After 12 h, cells were serum starved by replacing the complete media with media containing 2% FBS to synchronize the cells. Post‐12 h of synchronization, cells were treated with an increasing concentration (0.1, 1, 10, 100 μM) of all the compounds (1a, 1b, 1c, 1d, 1e, 1f, 1g, 1h, 1i, 1j, 1k). Separately, TNBC cells were treated with increasing concentration (0.01, 0.1, 1 μM) of Doxorubicin (Sigma‐Aldrich, St Louis, MO, USA) in presence of the selected compounds (1c, 1e, 1g, 1h, 1j, and 1k) at 5 μM concentration or combination of selected compounds (1c, 1e, 1g, 1h, 1j, and 1k) at increasing concentration (1, 2.5, 5, 10 μM) in presence of Doxorubicin (0.01 μM) for 48 h. In addition, the CD24^+‐breast cancer cells and CD24^−/CD44^+‐breast CSC populations, being sorted by Magnetic Activated Cell Sorting (MACS) from MDA‐MB‐231 cells as described previously,[6] were also treated with increasing concentrations of Doxorubicin (0.01–1 μM), in the presence or absence of 1e (10–30 μM), or PD153035 (10 μM) (Sigma‐Aldrich, St Louis, MO, USA). MTT assay was performed to evaluate the cytotoxicity of these compounds against the TNBC cell lines, and the sorted populations as described previously.[6] All the experiments were performed thrice and the IC50 values of the compounds and Doxorubicin were calculated using GraphPad Prism software version 9 (San Diego, CA, USA). Similarly, the percent inhibition of the sorted cell populations by chemotherapeutic drug, doxorubicin in the absence/presence of potent compound 1e or standard EGFR inhibitor, PD153035 was evaluated utilizing GraphPad Prism Version 9 (San Diego, CA, USA).

MDA‐MB‐468 [2] = assay: Cell migration (chemotaxis), Boyden-Chamber assay; assay type: cell-based, human; details: Doxorubicin 0.01 μM + compound 5 μM (PD153035 10 μM) vs 10% FBS and Doxorubicin alone
Protocol: (§3) TNBC cell lines—MDA‐MB‐231, MDA‐MB‐468, and the sorted CD24^+‐breast cancer cells, and CD24^−/CD44^+‐breast CSC populations from MDA‐MB‐231 [6] were seeded at a density of 1 × 10^6 cells/well to evaluate their migratory potential by Boyden‐Chamber assay. […] At the end of the treatment period, the cells were plated at a density of 5 × 10^3 cells/well in the upper chamber of the Boyden chamber assembly and 10% FBS in the lower chamber was used as a chemoattractant. Separately, the cells in the upper chamber were treated with Doxorubicin (0.01–0.1 μM) alone or with the potential EGFR inhibitors (compounds—1c, 1e, 1g, 1h, 1j, and 1k (5 μM) based on their low IC50 values) or a commercial EGFR inhibitor, PD153035 (10 μM) and incubated for 4 h followed by fixation and staining as described previously.[28], [29]

MDA‐MB‐231 [3] = assay: Cell migration (chemotaxis), Boyden-Chamber assay; assay type: cell-based, human; details: Doxorubicin 0.01 μM + compound 5 μM (PD153035 10 μM) vs 10% FBS and Doxorubicin alone
Protocol: as §3

MDA‐MB‐231 [4] = assay: MTT cytotoxicity assay in MDA-MB-231; assay type: cell-based, human; details: for IC50: 48 h, read-out: IC50 (μM) in MDA‐MB‐231 (mean ± SD)
Protocol: as §1, §2

MDA‐MB‐468 [5] = assay: MTT cytotoxicity assay in MDA-MB-468; assay type: cell-based, human; details: for decrease in the IC50 of Doxorubicin in the presence of the compound: MDA-MB-468, versus Doxorubicin alone; for IC50: 48 h, read-out: IC50 (μM) in MDA‐MB‐468 (mean ± SD)
Protocol: as §1, §2

[6] = system: CD24^−/CD44^+‐breast CSCs xenotransplanted tumors; assay: Preclinical orthotopic xenograft murine tumor model (tumor size, weight, H&E histology); assay type: in vivo, C57BL/6 mice; details: doxorubicin high dose 10 mg/kg intratumoral vs untreated breast CSCs transplanted group
Protocol: Animal studies have been carried out with the prior approval of the Institutional Animal Ethics Committee (IICT/IAEC/025/2023). C57BL/6 female mice of age 6–8 weeks (N = 35) were initially immunosuppressed with cyclophosphamide (50 mg/kg of body weight, i.p) on alternate days for 2 weeks. For generating a preclinical orthotopic xenograft tumor model, 2 × 10^6 GFP expressing sorted stable CD24^+‐breast cancer cells and CD24^−/CD44^+‐breast CSCs were orthotopically xeno‐transplanted subcutaneously at the fourth mammary fat pad of immune‐suppressed mice (n = 5/group). Subsequently, intratumoral administration of Doxorubicin at a low dose (2.5 mg/kg of body weight), high dose (10 mg/kg of body weight), and/or combinatorial treatment of the potent EGFR inhibitor, compound 1e (50 mg/kg of body weight) or the commercial EGFR inhibitor, PD153035 (50 mg/kg of body weight) with a low dose of doxorubicin was performed to the palpable tumors of breast CSCs at day‐3 post‐transplantation.
Euthanization of mice was performed on day 14 post‐transplantation and tumor tissues were collected for histological and immunohistochemical analysis. Histological differences in tumor tissues were evaluated using hematoxylin and eosin staining (H&E).[28], [30]

Structure (SMILES)	expression of pro‐apoptotic genes Bax and Cytochrome‐C [1]	IC50 (HEK‐293; compound alone)	IC50 (MDA‐MB‐231 [4]; compound alone, MTT)	decrease in the IC50 of Doxorubicin in the presence of the compound (MDA‐MB‐468 [5])	IC50 (MDA‐MB‐468 [5]; compound alone, MTT)	further results
Oc1ccc(C(c2c[nH]c3ccccc23)c2c[nH]c3ccccc23)cc1 [1c]	marked increase	127 ± 16.8 µM	30.5 ± 2.93 µM	10 fold	25 ± 2.41 µM	migratory potential (MDA‐MB‐468 [2]): significant decrease; migratory potential (MDA‐MB‐231 [3]): significant decrease
c1ccc2c(C(c3c[nH]c4ccccc34)c3c[nH]c4ccccc34)c[nH]c2c1 [1b]	–	231 ± 15.9 µM	22.1 ± 1.96 µM	–	90.8 ± 7.87 µM	–
COc1cc(C(c2c[nH]c3ccccc23)c2c[nH]c3ccccc23)ccc1O [1j]	marked increase	327 ± 20.7 µM	114 ± 1.25 µM	10 fold	68.4 ± 5.51 µM	–
c1ccc2c(C(c3ccc(C(c4c[nH]c5ccccc45)c4c[nH]c5ccccc45)cc3)c3c[nH]c4ccccc34)c[nH]c2c1 [1k, 1,4‐bis(di(1H‐indol‐3‐yl)methyl)benzene]	marked increase	–	–	10 fold	–	IC50 (HEK‐293; Homo sapiens, HEK293, compound alone): 235 ± 12.5 µM; IC50 (MDA‐MB‐231 [4]; Homo sapiens, MDA-MB-231, 48 h, compound alone, MTT): 14.7 ± 1.36 µM; IC50 (MDA‐MB‐468 [5]; Homo sapiens, MDA-MB-468, compound alone, MTT): 20.4 ± 2.41 µM
CN(C)c1ccc(C(c2c[nH]c3ccccc23)c2c[nH]c3ccccc23)cc1 [1f]	–	≥ 1000 µM	73 ± 1.13 µM	–	130 ± 7.76 µM	–
COc1cccc2c1C(=O)c1c(O)c3c(c(O)c1C2=O)C[C@@](O)(C(=O)CO)C[C@@H]3O[C@H]1C[C@H](N)[C@H](O)[C@H](C)O1 [Doxorubicin, reference compound]	–	–	–	–	–	tumor size and weight [6]: significantly lower; IC50 (MDA‐MB‐231 [4]; Homo sapiens, MDA-MB-231, 48 h, IC50 of doxorubicin alone or in presence of compound at 5 μM): 0.1 µM; inhibition at 0.01 µM (MDA‐MB‐231 [4]; Homo sapiens, MDA-MB-231, Doxorubicin 0.01 µM alone, read-out: Percent inhibition (%) in MDA-MB-231 (Mean ± SEM)): 21.1 ± 0.701%; IC50 (MDA‐MB‐231 [4]; IC50 of doxorubicin alone or in presence of compound at 5 μM): 0.11 ± 0.01 µM; inhibition at 0.01 µM (MDA‐MB‐468 [5]; Homo sapiens, MDA-MB-468, Doxorubicin 0.01 µM alone, read-out: Percent inhibition (%) in MDA-MB-468 (Mean ± SEM)): 19.1 ± 1.08%; IC50 (MDA‐MB‐468 [5]; Homo sapiens, MDA-MB-468, IC50 of doxorubicin alone or in presence of compound at 5 μM): 0.4 ± 0.008 µM
c1ccc2c(C(c3c[nH]c4ccccc34)C(c3c[nH]c4ccccc34)c3c[nH]c4ccccc34)c[nH]c2c1 [1g]	marked increase	≥ 1000 µM	≥ 1000 µM	10 fold	29.6 ± 6.04 µM	migratory potential (MDA‐MB‐468 [2]): significant decrease; migratory potential (MDA‐MB‐231 [3]): significant decrease
c1ccc(C(c2c[nH]c3ccccc23)c2c[nH]c3ccccc23)nc1 [1d]	–	219 ± 11.6 µM	44.4 ± 2.11 µM	–	47.6 ± 5.99 µM	–
